Reference: patent US12144864B2, “Tubulysins and protein-tubulysin conjugates” (Regeneron Pharmaceuticals, Inc., priority 2018, dated 2024)
Like-named read-outs stand apart in the source and are kept apart here.

How the values were obtained:
HCT15 cells = test: cells; type: cell-based, human; settings: HCT15 cells; for HCT-15 + verapamil % Kill / HCT-15 % Kill: maximum % cell killing
Procedure: (§1) To test the ability of the disclosed tubulysin payloads to kill human cell lines, an in vitro cytotoxicity assay was performed. In vitro cytotoxicity of the disclosed payloads, as well as reference compounds, were evaluated using the CellTiter-Glo Assay Kit (Promega, Cat #G7573), in which the quantity of ATP present is used to determine the number of viable cells in culture. For the assay, C4-2, HEK293, or T47D cells were seeded at 4000 cells/well on Nunclon white 96-well plates in complete growth medium (DME high glucose:Ham's F12 at 4:1, 10% FBS, 100 units/ml Penicillin, 100 ug/ml streptomycin, 53 ug/ml glutatmine, 10 ug/ml insulin, 220 ng/ml biotin, 12.5 pg/ml T3, 12.5 ug/ml Adenine, 4 ug/ml transferrin for C42 cells; DME high glucose, 10% FBS, 100 units/ml Penicillin, 100 ug/ml streptomycin, 53 ug/ml glutatmine for HEK293; RPMI, 10% FBS, 100 units/ml Penicillin, 100 ug/ml streptomycin, 53 ug/ml glutatmine, 10 ug/ml insulin, 10 mM HEPEs, 200 nM Sodium Pyruvate for T47D cells) and grown overnight at 37° C. in 5% CO2. For cell viability curves, 1:3 serially diluted payloads were added to the cells at final concentrations ranging from 100 nM to […], including a no treatment control group, and were then incubated for 5 days. After the 5-day incubation, cells were incubated at room temperature with 100 μL of CellTiter-Glo reagents for 10 minutes. Relative luminescence units (RLU) were determined on a Victor plate reader (PerkinElmer). The IC50 values were determined from a four-parameter logistic equation over a 10-point response curve (GraphPad Prism). All IC50 values are expressed in molar (M) concentration. The percent cell killing (% kill) at the maximum concentration tested was estimated from the following formula (100−% viable cells). Averages±standard deviation (SD) are included where replicate experiments were performed.
In vitro cytotoxicity of the disclosed payloads as well as reference compounds were evaluated similarly as described above except using 1000 HCT15 cells, a colorectal carcinoma cell line, in growth medium (RPMI, 10% FBS, 100 units/ml Penicillin, 100 ug/ml streptomycin, 53 ug/ml glutatmine) with or without 5 ug/mL of Verapamil.

C4-2 cells = test: Cell-based killing assay of payloads (CellTiter-Glo), C4-2 cells; parameters: species or system human; settings: 5-day incubation; for IC50: Homo sapiens, C4-2, 120 h, average ± SD where replicates; for C4-2 % Kill: at maximum concentration tested (100 − % viable cells)
Procedure: as §1

HL60/MX2 cells = test: Cytotoxicity in panel of MDR cell lines, HL60/MX2 (72 h and 144 h); type: cell-based, human; settings: for IC50: Homo sapiens
Procedure: as §1
(§2) To further test the ability of the disclosed tubulysin payloads, a cytotoxicity assay was performed using a panel of multidrug resistant (MDR) cell lines. In vitro cytotoxicity of the disclosed payloads as well as reference compounds were similarly evaluated as described above except using HCT-15 cells, a colorectal carcinoma cell line; H69AR, a doxorubicin resistant MDR derivative of the small cell lung cancer carcinoma cell line NCI-H69; MES-SA/MX2, a mitoxantrone resistant MDR derivative of the uterine sarcoma cell line MES-SA; and HL60/MX2, a mitoxantrone resistant MDR derivative of the acute promyelocytic leukemia cell line HL60. In these assays, cytotoxicity was evaluated in normal growth media (RPMI, 10% FBS, 100 units/ml Penicillin, 100 ug/ml streptomycin, and 53 ug/ml glutatmine for HCT-15 and HL60/MX2; RPMI, 20% FBS, 100 units/ml Penicillin, 100 ug/ml streptomycin, and 53 ug/ml glutatmine for H69-AR; Waymouths's:McCoy's (1:1), 10% FBS, 100 units/ml Penicillin, 100 ug/ml streptomycin, and 53 ug/ml glutatmine for MES-SA/MX2) with 1000 cells per well following 72 h and 144 h incubation with payloads.

MES-SA/MX2 cells = test: Cytotoxicity in panel of MDR cell lines, MES-SA/MX2 (72 h and 144 h); type: cell-based, human; settings: for IC50: Homo sapiens
Procedure: as §1, §2

HCT-15 cells = test: Cytotoxicity in panel of MDR cell lines, HCT-15 (72 h and 144 h); type: cell-based, human; settings: for IC50: Homo sapiens
Procedure: as §1, §2

H69AR cells = test: Cytotoxicity in panel of MDR cell lines, H69AR (72 h and 144 h); type: cell-based, human; settings: for IC50: Homo sapiens
Procedure: as §1, §2

[1] = with 5 ug/mL Verapamil, read-out: HCT-15 + verapamil IC50
[2] = Homo sapiens, HCT-15, without Verapamil, read-out: HCT-15 IC50
[3] = 72 h incubation, read-out: HL60/MX2 IC50 72 h
[4] = 144 h incubation, read-out: HL60/MX2 IC50 144 h
[5] = 72 h incubation, read-out: MES-SA/MX2 IC50 72 h
[6] = 144 h incubation, read-out: MES-SA/MX2 IC50 144 h
[7] = 72 h incubation, read-out: HCT-15 IC50 72 h
[8] = 144 h incubation, read-out: HCT-15 IC50 144 h
[9] = 72 h incubation, read-out: H69AR IC50 72 h
[10] = 144 h incubation, read-out: H69AR IC50 144 h

| Structure (SMILES) | HCT-15 + verapamil % Kill (HCT15 cells; with 5 ug/mL Verapamil) | IC50 (HCT15 cells; [1]) | HCT-15 % Kill (HCT15 cells; without Verapamil) | IC50 (HCT15 cells; [2]) | IC50 (C4-2 cells) | C4-2 % Kill (C4-2 cells) | HL60/MX2 % Kill 72 h (HL60/MX2 cells; 72 h incubation) | HL60/MX2 % Kill 144 h (HL60/MX2 cells; 144 h incubation) | IC50 (HL60/MX2 cells; [3]) | IC50 (HL60/MX2 cells; [4]) | MES-SA/MX2 % Kill 72 h (MES-SA/MX2 cells; 72 h incubation) | MES-SA/MX2 % Kill 144 h (MES-SA/MX2 cells; 144 h incubation) | IC50 (MES-SA/MX2 cells; [5]) | IC50 (MES-SA/MX2 cells; [6]) | HCT-15 % Kill 72 h (HCT-15 cells; 72 h incubation) | HCT-15 % Kill 144 h (HCT-15 cells; 144 h incubation) | IC50 (HCT-15 cells; [7]) | IC50 (HCT-15 cells; [8]) | H69AR % Kill 72 h (H69AR cells; 72 h incubation) | H69AR % Kill 144 h (H69AR cells; 144 h incubation) | further results |
| --- | --- | --- | --- | --- | --- | --- | --- | --- | --- | --- | --- | --- | --- | --- | --- | --- | --- | --- | --- | --- | --- |
| C#CCCCCN(C(=O)[C@@H](NC(=O)[C@H]1CCCCN1C)[C@@H](C)CC)[C@H](C[C@@H](OC(C)=O)c1nc(C(=O)N[C@@H](Cc2ccccc2)CC(C)(C)C(=O)O)cs1)C(C)C [IVb, (4S)-4-({2-[(1R,3R)-1-(Acetyloxy)-3-[(2S,3S)—N-(hex-5-yn-1-yl)-3-methyl-2-{[(2R)-1-methylpiperidin-2-yl]formamido}pentanamido]-4-methylpentyl]-1,3-thiazol-4-yl}formamido)-2,2-dimethyl-5-phenylpentanoic acid] | 98.1% | 0.103 nM | 98% | 0.151 nM |  |  |  |  |  |  |  |  |  |  |  |  |  |  |  |  |  |
| CC[C@H](C)[C@H](NC(=O)[C@H]1CCCCN1C)C(=O)N(CCCCc1cn(CC(=O)O)nn1)[C@H](C[C@@H](OC(C)=O)c1nc(C(=O)N[C@@H](Cc2ccc(N)cc2)CC(C)(C)C(=O)O)cs1)C(C)C [IVm, (S)-4-(2-((1R,3R)-1-acetoxy-3-((2S,3S)—N-(4-(1-(carboxymethyl)-1H-1,2,3-triazol-4-yl)butyl)-3-methyl-2-((R)-1-methylpiperidine-2-carboxamido)pentanamido)-4-methylpentyl)thiazole-4-carboxamido)-5-(4-aminophenyl)-2,2-dimethylpentanoic acid] |  |  |  |  | > 100 nM | 8.9% |  |  |  |  |  |  |  |  |  |  |  |  |  |  |  |
| CCCCCCN(C(=O)[C@@H](NC(=O)[C@H]1CCCCN1C)[C@@H](C)CC)[C@H](C[C@@H](OC(C)=O)c1nc(C(=O)N[C@@H](Cc2ccc(N)cc2)CC(C)(C)C(=O)O)cs1)C(C)C [IVq, (S)-4-(2-((1R,3R)-1-Acetoxy-3-((2S,3S)—N-hexyl-3-methyl-2-((R)-1-methylpiperidine-2-carboxamido)pentanamido)-4-methylpentyl)thiazole-4-carboxamido)-5-(4-aminophenyl)-2,2-dimethylpentanoic acid] | 98.6 ± 0.7% | 0.0225 nM | 98.4 ± 0.8% | 0.0423 nM |  |  | 98.6% | 100% | < 0.015 nM | < 0.015 nM | 99.4% | 100% | 0.0589 nM | 0.105 nM | 98% | 99.8% | < 0.015 nM | 0.0277 nM | 96.9% | 99.5% | IC50 (H69AR cells; [9]): 0.0642 nM; IC50 (H69AR cells; [10]): 0.128 nM |
| [2H]c1cc(C[C@@H](CC(C)(C)C(=O)O)NC(=O)c2csc([C@@H](C[C@H](C(C)C)N(CCCCC#C)C(=O)[C@@H](NC(=O)[C@H]3CCCCN3C)[C@@H](C)CC)OC(C)=O)n2)cc([2H])c1N [IVr, (S)-4-(2-((1R,3R)-1-Acetoxy-3-((2S,3S)—N-(hex-5-yn-1-yl)-3-methyl-2-((R)-1-methylpiperidine-2-carboxamido)pentanamido)-4-methylpentyl)thiazole-4-carboxamido)-5-(4-aminophenyl-3,5-d2)-2,2-dimethylpentanoic acid] | 99% | 0.0624 nM | 99.1% | 0.0893 nM |  |  | 98.7% | 100% | < 0.015 nM | < 0.015 nM | 99.1% | 100% | 0.151 nM | 0.176 nM | 98% | 99.7% | 0.0401 nM | 0.0621 nM | 96.7% | 99% | IC50 (H69AR cells; [9]): 0.137 nM; IC50 (H69AR cells; [10]): 0.211 nM |
| CCCCCCN(C(=O)[C@@H](NC(=O)[C@H]1CCCCN1C)[C@@H](C)CC)[C@H](C[C@@H](OC(C)=O)c1nc(C(=O)NC(Cc2ccc(N)c(O)c2)CC(C)(C)C(=O)O)cs1)C(C)C (stereo partly drawn) [IVx, 4-(2-((1R,3R)-1-Acetoxy-3-((2S,3S)—N-hexyl-3-methyl-2-((R)-1-methylpiperidine-2-carboxamido)pentanamido)-4-methylpentyl)thiazole-4-carboxamido)-5-(4-amino-3-hydroxyphenyl)-2,2-dimethylpentanoic acid] |  |  |  |  |  |  | 96.9% | 100% | 0.955 nM | 0.77 nM | 62.1% | 33.6% | > 100 nM | > 100 nM | 84.4% | 91% | 34.5 nM | 84.8 nM | 48.7% | 38% | IC50 (H69AR cells; [9]): > 100 nM; IC50 (H69AR cells; [10]): > 100 nM |
| CCCCCCN(C(=O)[C@@H](NC(=O)[C@H]1CCCCN1C)[C@@H](C)CC)[C@H](C[C@@H](OC(C)=O)c1nc(C(=O)N[C@@H](Cc2ccc(N)cc2)CC(C)(C)C(=O)NN)cs1)C(C)C [IVy, (1R,3R)-1-(4-((S)-1-(4-Aminophenyl)-5-hydrazinyl-4,4-dimethyl-5-oxopentan-2-ylcarbamoyl)thiazol-2-yl)-3-((2S,3S)—N-hexyl-3-methyl-2-((R)-1-methylpiperidine-2-carboxamido)pentanamido)-4-methylpentyl acetate] |  |  |  |  | 1.82 nM | 94.4% |  |  |  |  |  |  |  |  |  |  |  |  |  |  |  |
| CCCCCCN(C(=O)[C@@H](NC(=O)[C@H]1CCCCN1C)[C@@H](C)CC)[C@H](C[C@@H](OC(C)=O)c1nc(C(=O)N[C@@H](Cc2ccc(F)cc2)CC(C)(C)C(=O)O)cs1)C(C)C [VIII, (4S)-4-({2-[(1R,3R)-1-(Acetyloxy)-3-[(2S,3S)—N-hexyl-3-methyl-2-{[(2R)-1-methylpiperidin-2-yl]formamido}pentanamido]-4-methylpentyl]-1,3-thiazol-4-yl}formamido)-5-(4-fluorophenyl)-2,2-dimethylpentanoic acid] |  |  |  |  |  |  |  |  |  |  |  |  |  |  |  |  |  |  |  |  | IC50 (HCT15 cells; with 5 ug/mL Verapamil, read-out: HCT-15 + verapamil IC50 (value in brackets)): 0.106 nM; IC50 (HCT15 cells; Homo sapiens, HCT-15, without Verapamil, read-out: HCT-15 IC50 (value in brackets)): 0.295 nM |
| C#CCCCON(C(=O)[C@@H](NC(=O)[C@H]1CCCCN1C)[C@@H](C)CC)[C@H](C[C@@H](OC(=O)NCC)c1nc(C(=O)N[C@@H](Cc2ccc(NC(C)=O)cc2)CC(C)(C)C(=O)O)cs1)C(C)C [VIg, (4S)-5-(4-Acetamidophenyl)-4-({2-[(1R,3R)-1-[(ethylcarbamoyl)oxy]-4-methyl-3-[(2S,3S)-3-methyl-2-{[(2R)-1-methylpiperidin-2-yl]formamido}-N-(pent-4-yn-1-yloxy)pentanamido]pentyl]-1,3-thiazol-4-yl}formamido)-2,2-dimethylpentanoic acid] |  |  |  |  | > 100 nM | 10.9% |  |  |  |  |  |  |  |  |  |  |  |  |  |  |  |
